According to PMC8311653, “Design, Synthesis, In Vitro and In Vivo Characterization of Selective NKCC1 Inhibitors for the Treatment of Core Symptoms in Down Syndrome” (Journal of Medicinal Chemistry, 2021):

Experiments:
[1] = target: T1, NKCC1 (Mus musculus, UniProt P55012); assay: Ca2+ influx assay in immature primary neuronal cultures (indirect measure of NKCC1 inhibition); assay type: cell-based
T1 construct: primary neuronal cultures of dissociated hippocampal neurons were prepared from E18 C57BL/6J mice; endogenous in cells; host or cells: primary hippocampal neurons from E18 C57BL/6J mice, 3 DIV
T1 sequence (P55012 1-1205): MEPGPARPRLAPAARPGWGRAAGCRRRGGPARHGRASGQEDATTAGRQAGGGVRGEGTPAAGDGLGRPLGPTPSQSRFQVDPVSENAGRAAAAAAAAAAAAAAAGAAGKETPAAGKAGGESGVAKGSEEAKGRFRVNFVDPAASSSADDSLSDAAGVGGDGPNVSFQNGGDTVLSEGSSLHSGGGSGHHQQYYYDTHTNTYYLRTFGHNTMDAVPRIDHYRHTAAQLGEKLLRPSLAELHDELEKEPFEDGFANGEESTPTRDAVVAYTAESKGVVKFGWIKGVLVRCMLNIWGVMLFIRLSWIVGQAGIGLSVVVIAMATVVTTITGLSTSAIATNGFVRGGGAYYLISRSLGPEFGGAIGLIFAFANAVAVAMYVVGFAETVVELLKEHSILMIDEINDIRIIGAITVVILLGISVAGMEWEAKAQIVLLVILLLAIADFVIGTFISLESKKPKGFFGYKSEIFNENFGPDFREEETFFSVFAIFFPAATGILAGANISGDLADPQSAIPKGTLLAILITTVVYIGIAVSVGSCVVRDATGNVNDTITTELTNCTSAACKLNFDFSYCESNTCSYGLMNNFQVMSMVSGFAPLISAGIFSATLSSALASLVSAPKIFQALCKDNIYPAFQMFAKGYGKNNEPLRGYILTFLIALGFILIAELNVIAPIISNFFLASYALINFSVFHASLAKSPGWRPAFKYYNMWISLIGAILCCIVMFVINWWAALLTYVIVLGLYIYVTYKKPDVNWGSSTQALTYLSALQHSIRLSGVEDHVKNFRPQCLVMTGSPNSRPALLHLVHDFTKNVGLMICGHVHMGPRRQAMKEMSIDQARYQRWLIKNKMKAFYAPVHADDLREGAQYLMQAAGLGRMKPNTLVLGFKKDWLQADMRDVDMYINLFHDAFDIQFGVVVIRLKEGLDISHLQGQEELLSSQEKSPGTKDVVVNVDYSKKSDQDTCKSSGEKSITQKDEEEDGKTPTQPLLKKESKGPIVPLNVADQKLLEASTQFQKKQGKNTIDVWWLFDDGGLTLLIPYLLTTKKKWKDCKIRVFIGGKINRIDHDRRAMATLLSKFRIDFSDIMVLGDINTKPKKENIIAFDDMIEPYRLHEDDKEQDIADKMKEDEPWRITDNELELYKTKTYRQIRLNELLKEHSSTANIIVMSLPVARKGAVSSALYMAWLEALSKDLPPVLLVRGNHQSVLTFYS
Procedure: To perform the Ca^2+-influx assay, primary neuronal cultures of dissociated hippocampal neurons were prepared from E18 C57BL/6J mice (Charles River) as previously described[56] and plated in 96-well black-walled, clear-bottomed plates coated with poly-L-lysine (Sigma; 0.1 mg/mL in 100 mM borate buffer, pH 8.5) at a density of 30,000 cells per well. Neurons were maintained in neurobasal medium supplemented with 2% B-27 supplement, 0.5 mM glutamine, 50 U/mL of penicillin, and 50 μg/mL of streptomycin (all from Gibco). The cells were incubated at 37 °C and 5% CO2 until DIV 3 for the Ca^2+ influx assay.
At 3 DIVs, neurons were loaded with 2.5 μM of the Ca^2+-sensitive day Fluo4-AM (Invitrogen) in extracellular solution (145 mM NaCl, 5 mM KCl, 10 mM HEPES, 5.55 mM glucose, 1 mM MgCl2, and 2 mM CaCl2, pH 7.4). After 15 min, cells were washed twice with extracellular solutions and treated with bumetanide (as a positive control), DMSO (as a negative control), or each of our compounds at 10 μM or 100 μM, in extracellular solution for 15 min. Plates were then loaded onto a Spark (Tecan) multiplate reader equipped with an automatic liquid injector system, and Fluo4 fluorescence was recorded with excitation at 485 nm and emission at 535 nm. For each well, fluorescence was first recorded for 20 s of the baseline and for 20 s after delivery of GABA (100 μM). To evaluate neuronal viability, fluorescence was recorded for an additional 20 s after delivery of a depolarizing KCl stimulus (90 mM final concentration in wells). To represent the fluorescent traces in time, we normalized the fluorescence value for each time point to the average of the fluorescence value for the first 20 s of the baseline (ΔF/F0). To quantify the average effects as represented by the bar plots, we measured the maximum peak increase in ΔF/F0 fluorescence upon GABA application normalized over the maximum peak increase in ΔF/F0 fluorescence upon KCl application. We then presented in the figures all the data as a percentage of the fluorescence increase versus the value of the control DMSO.

[2] = Aqueous kinetic solubility in PBS pH 7.4; assay type: physicochemical; details: aqueous kinetic solubility from 10 mM DMSO solution in PBS pH 7.4, target concentration 250 μM (final DMSO 2.5%)
Procedure: 1. Aqueous kinetic solubility.
30 µL aliquots of 10 mM DMSO stock solution of the test compound were incubated in Phosphate
Buffered Saline (PBS) at pH 7.4 at 25°C for 24h. After centrifugation the dissolved compound in the
supernatant was quantified by LC-MS/MS.
Aqueous kinetic solubility was determined by UV quantification at
215 nm. […]

[3] = In vitro metabolic stability in mouse liver microsomes; details: tissue homogenate, pH 7.4
Method in brief: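 Compound incubated in mouse liver microsomes in 0.1M Tris-HCl pH 7.4 with 10% DMSO; after pre-incubation NADPH, G6P, G6PDH and MgCl2 added, then 37 °C for 1h, sampled at 0, 5, 15, 30, 60 min.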

[4] = In vitro mouse plasma stability; assay type: in vitro ADME; details: mouse plasma at 37 °C; incubated at 5 μM (final DMSO 0.1%); read-out: t1/2 plasma
[5] = 100 μM, cultured neurons, 3 DIV
[6] = phosphate buffered saline (PBS)

SMILES	inhibition at 10 µM ([1]; cultured neurons, 3 DIV) [%]	inhibition at 100 µM [1, 5] [%]	solubility at 24 h [2, 6] [µM]	half-life at 5 μM [3] [h]	half-life at 5 μM [4] [h]	Inhibition 100 μM Ca2+ influx (%) [1, 5] [%]	inhibition of NKCC1 in the Ca2+ influx assay (dose dependence) ([1]; neuronal cultures, Figures 4A and S2)	solubility at 24 h [2] [µM]
CN(C)S(=O)(=O)c1cc(C(=O)O)ccc1NCCCCCCCC(F)(F)F [Compound 1, 3-(-N,N-Dimethylsulfamoyl)-4-(8,8,8-trifluorooctylamino)benzoic Acid]	45.7 ± 4.3	92.8 ± 1.9	> 250	> 1	> 2	–	–	–
CN(C)S(=O)(=O)c1cc(C(=O)O)c(O)cc1NCCCCCCCC(F)(F)F [Compound 40, 5-(N,N-Dimethylsulfamoyl)-2-hydroxy-4-((8,8,8-trifluorooctyl)amino)benzoic Acid]	13.9 ± 2	51.8 ± 4	> 250	> 1	> 2	51.9 ± 4.0	significant dose-dependent inhibition	–
CCCCNc1cc(C(=O)O)cc(S(N)(=O)=O)c1Oc1ccccc1 [bumetanide, reference compound]	51.9 ± 2.3	54.7 ± 2.5	–	> 1	–	–	–	> 250
